We go through eleven compounds from ChEMBL document CHEMBL1201862, “PubChem BioAssay data set” (2004).

Test systems include TK-10; MCF7; SW-620; M14; RPMI-8226; PC-3; SNB-19; SNB-75; SK-MEL-2; SR; SK-MEL-28; CAKI-1; MDA-MB-435; LOX IMVI; BT-549; SK-MEL-5; HL-60; U-251; SF-268; HCC 2998.
What all share (assay): growth of human tumour cells (NCI), 48 h

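In this assay, cells in 96-well plates receive the compound at five concentrations for 48 hours. Endpoints are linearly interpolated between the surrounding concentrations. GI50 marks 50% less growth.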 Calls of active or inactive are those of the source. Cut-off read from the data, not from the text of the source: active = GI50 up to about 1.1 µM and inactive = higher.

As to `O=C(O)C1CCCN1Cc1c[nH]c2ccccc12` (centres undefined), the GI50 with TK-10, in the assay on MCF7, in the assay with SW-620, with M14, in the assay with RPMI-8226 and in the assay with PC-3 was > 100 µM (inactive) throughout. Besides, the GI50 in the assay on SNB-19, in the assay with SNB-75, in the assay on SK-MEL-2, with SR, with SK-MEL-28 and in the assay with CAKI-1 was > 100 µM (inactive) each time. The GI50 with MDA-MB-435, with LOX IMVI, with BT-549, in the assay on SK-MEL-5, in the assay on HL-60 and with U-251 was > 100 µM (inactive) in each case. For the same compound, the GI50 with SF-268 is > 100 µM (inactive).

As to `O=C(O)C1C(C(=O)O)C2C(=O)C=CC1N2Cc1ccccc1` (centres undefined), the GI50 is 2.84 µM (inactive) in the assay on TK-10; 4.63 µM (inactive) in the assay with MCF7; 2.65 µM (inactive) with SW-620; 2.8 µM (inactive) in the assay with HCC 2998; 2.25 µM (inactive) in the assay on M14; 2.96 µM (inactive) in the assay with RPMI-8226. Moreover, the GI50 with PC-3 was 5.58 µM (inactive); with SNB-19, 5.55 µM (inactive); in the assay on SNB-75, 2.65 µM (inactive); with SK-MEL-2 it was 8.51 µM (inactive); in the assay with SK-MEL-28, 4.29 µM (inactive); in the assay with CAKI-1 it was 3.94 µM (inactive). Moreover, the GI50 with MDA-MB-435 was 3.66 µM (inactive); in the assay on LOX IMVI, 3.4 µM (inactive); with BT-549, 4.57 µM (inactive); with SK-MEL-5, 5.32 µM (inactive); in the assay on HL-60, 1.77 µM (inactive); in the assay on U-251, 3.52 µM (inactive). Moreover, the GI50 with SF-268 was 3.24 µM (inactive).

On to `Cc1ccc(C)n2c1nc1cc3ccccc3cc12`, for which the GI50 in the assay on TK-10 is 15.5 µM (inactive); in the assay on MCF7, 1.14 µM (inactive); in the assay on SW-620 it was 33.1 µM (inactive); with M14, 42.6 µM (inactive); in the assay with RPMI-8226 it was 42.5 µM (inactive); in the assay on PC-3, 32.4 µM (inactive). Besides, the GI50 in the assay on SNB-19 is 24.4 µM (inactive); with SNB-75 it was 17 µM (inactive); with SR, 43.4 µM (inactive); in the assay with SK-MEL-28 it was 45 µM (inactive); in the assay with MDA-MB-435, 44.8 µM (inactive); in the assay on BT-549, 25.6 µM (inactive). In addition, the GI50 is 17.1 µM (inactive) in the assay on SK-MEL-5, 53.8 µM (inactive) with HL-60, 30.4 µM (inactive) in the assay on U-251 and 64 µM (inactive) with SF-268.

In the case of `CC(=O)N1CCOC12N=NC(C)(C)O2` (centres undefined), the GI50 in the assay with TK-10, in the assay on MCF7, in the assay on SW-620, in the assay on HCC 2998, with M14 and in the assay with RPMI-8226 was > 100 µM (inactive) throughout. For the same compound, the GI50 in the assay with PC-3, in the assay on SNB-19, in the assay on SNB-75, in the assay with SK-MEL-2, in the assay on SR and in the assay on SK-MEL-28 was > 100 µM (inactive) each time. The GI50 in the assay on CAKI-1, with MDA-MB-435, with LOX IMVI, with BT-549, in the assay on SK-MEL-5 and in the assay on U-251 was > 100 µM (inactive) each time. For the same compound, the GI50 with SF-268 is > 100 µM (inactive).

As for `NS(=O)(=O)c1ccc(/N=N/c2cnc(O)c(O)c2)cc1`, the GI50 is > 100 µM (inactive) in the assay with TK-10; 44.2 µM (inactive) in the assay with MCF7; > 100 µM (inactive) in the assay on SW-620; 81.3 µM (inactive) with M14; > 100 µM (inactive) in the assay with RPMI-8226; > 100 µM (inactive) in the assay on PC-3. Also, the GI50 is 52.4 µM (inactive) in the assay with SNB-19; 47.4 µM (inactive) in the assay on SNB-75; 52 µM (inactive) with SK-MEL-2; 29.6 µM (inactive) in the assay on SR; > 100 µM (inactive) in the assay on SK-MEL-28; > 100 µM (inactive) in the assay on CAKI-1. The GI50 in the assay with MDA-MB-435 was > 100 µM (inactive); in the assay with LOX IMVI, 91.2 µM (inactive); with BT-549, 42.5 µM (inactive); in the assay on SK-MEL-5, 78.2 µM (inactive); in the assay on HL-60 it was > 100 µM (inactive); in the assay on U-251, 20.8 µM (inactive). The GI50 with SF-268 is 43.2 µM (inactive).

For `CCNC(=S)NNC(=O)C12CC3CC(CC(C3)C1)C2`, the GI50 in the assay with TK-10, in the assay on MCF7, with SW-620, with HCC 2998, with M14 and with RPMI-8226 was > 100 µM (inactive) in each case. Further, the GI50 is > 100 µM (inactive) with PC-3; > 100 µM (inactive) in the assay on SNB-19; 64.1 µM (inactive) in the assay on SNB-75; > 100 µM (inactive) with SK-MEL-2; > 100 µM (inactive) in the assay with SK-MEL-28; > 100 µM (inactive) in the assay with CAKI-1. Moreover, the GI50 in the assay on MDA-MB-435, in the assay on LOX IMVI, in the assay with BT-549, in the assay with SK-MEL-5, in the assay with HL-60 and in the assay on U-251 was > 100 µM (inactive) in each case. Further, in the assay with SF-268, the GI50 is > 100 µM (inactive).

Consider `COc1ccc(CN2C(=O)CCC/C=C\[C@H]2CI)cc1`, for which the GI50 is 12.5 µM (inactive) with TK-10; 10.7 µM (inactive) in the assay with MCF7; 11.6 µM (inactive) in the assay on SW-620; 11.6 µM (inactive) with HCC 2998; 10.7 µM (inactive) in the assay on M14; 6.97 µM (inactive) with RPMI-8226. Further, the GI50 in the assay with PC-3 was 8.07 µM (inactive); in the assay on SNB-19, 13.2 µM (inactive); in the assay on SNB-75 it was 2.41 µM (inactive); in the assay with SK-MEL-2, 11 µM (inactive); in the assay on SR, 11.5 µM (inactive); with SK-MEL-28 it was 12.6 µM (inactive). The GI50 with CAKI-1 is 10.3 µM (inactive); with MDA-MB-435, 12.7 µM (inactive); in the assay on LOX IMVI, 17.6 µM (inactive); with BT-549 it was 19.5 µM (inactive); in the assay on SK-MEL-5, 12.6 µM (inactive); in the assay with U-251, 13.6 µM (inactive). Besides, the GI50 with SF-268 is 13.4 µM (inactive).

As to `COC1C=COC2(C)Oc3c(C)c(O)c4c(O)c(c(C5SCCS5)c(O)c4c3C2=O)NC(=O)C(C)=C/C=C\C(C)C2OC(C)(C)OC(C2C)C(C)C(OC(C)=O)C1C` (centres undefined), the GI50 is 6.41 µM (inactive) in the assay on TK-10; 2.92 µM (inactive) in the assay with MCF7; 7 µM (inactive) in the assay with SW-620; 5.15 µM (inactive) with HCC 2998; 9.31 µM (inactive) in the assay with M14; 4.57 µM (inactive) in the assay on RPMI-8226. Also, the GI50 in the assay with PC-3 was 5.31 µM (inactive); in the assay with SNB-19, 16.4 µM (inactive); in the assay with SNB-75, 42.3 µM (inactive); in the assay with SK-MEL-2, 5.79 µM (inactive); in the assay on SK-MEL-28, 23.5 µM (inactive); with CAKI-1, 6.12 µM (inactive). Besides, the GI50 in the assay on MDA-MB-435 is 4.79 µM (inactive); in the assay on LOX IMVI, 5.31 µM (inactive); in the assay on BT-549 it was 3.73 µM (inactive); in the assay on SK-MEL-5, 3.77 µM (inactive); in the assay on HL-60 it was 5.53 µM (inactive); in the assay on U-251, 4.78 µM (inactive). Besides, in the assay with SF-268, the GI50 is 7.33 µM (inactive).

In the case of `CC1=C2c3ccccc3N(S(=O)(=O)c3ccccc3)[C@H]2[C@H](C(=O)N2C3CC4CC[C@@]3(CS2(=O)=O)C4(C)C)CC1` (some centres undefined), the GI50 in the assay on TK-10 was 43.9 µM (inactive); in the assay on MCF7, 18 µM (inactive); in the assay with SW-620 it was > 100 µM (inactive); with M14 it was 64.4 µM (inactive); in the assay on RPMI-8226, 0.334 µM (active); in the assay on PC-3, 8.67 µM (inactive). For the same compound, the GI50 with SNB-19 was 24.9 µM (inactive); in the assay with SNB-75, 0.635 µM (active); in the assay on SR it was 12.5 µM (inactive); in the assay on SK-MEL-28, > 100 µM (inactive); in the assay on CAKI-1, 11.2 µM (inactive); in the assay on MDA-MB-435, 56.5 µM (inactive). The GI50 is 23.6 µM (inactive) with LOX IMVI; 8.28 µM (inactive) in the assay on BT-549; 22.8 µM (inactive) in the assay on SK-MEL-5; 0.641 µM (active) in the assay on HL-60; 6.59 µM (inactive) in the assay on U-251; 17.9 µM (inactive) in the assay with SF-268.

In the case of `Cc1c2c(n(Cc3ccccn3)c1C)NN=C(C#N)S2(=O)=O`, the GI50 in the assay on TK-10, in the assay on MCF7, in the assay with SW-620, in the assay on HCC 2998, in the assay with M14 and with PC-3 was > 100 µM (inactive) each time. For the same compound, the GI50 with SNB-19, in the assay with SNB-75, with SK-MEL-2, in the assay on SR, in the assay with SK-MEL-28 and in the assay with CAKI-1 was > 100 µM (inactive) throughout. The GI50 in the assay on MDA-MB-435, in the assay on LOX IMVI, in the assay on BT-549, with SK-MEL-5, with U-251 and in the assay on SF-268 was > 100 µM (inactive) throughout.

Regarding `COC(=O)C1(C)C=CC(=O)C2(C)C1C(O)C1OC3CC(c4ccoc4)C(C)=C3C1(C)C2CC(=O)O` (centres undefined), the GI50 in the assay on TK-10, in the assay on MCF7, in the assay on SW-620, with HCC 2998, in the assay on M14 and in the assay on RPMI-8226 was > 100 µM (inactive) in each case. In addition, the GI50 in the assay with PC-3, in the assay with SNB-19, in the assay with SNB-75, in the assay on SK-MEL-2, with SK-MEL-28 and in the assay with CAKI-1 was > 100 µM (inactive) throughout. Also, the GI50 in the assay on MDA-MB-435, in the assay on LOX IMVI, in the assay with BT-549, in the assay on SK-MEL-5, with HL-60 and in the assay on U-251 was > 100 µM (inactive) each time. The GI50 in the assay with SF-268 was > 100 µM (inactive).
